Measured values reported in the supplement of paper PMC10307832.

Columns and labels:
Assay in all cases: relative viability (nuclei count vs DMSO), 5 days (fraction); higher = more cells survive
XMD13-2 + Alpelisib = compound: C1CC1C(=O)NC2=NNC3=C2C=CC(=C3)C4=CC(=CC=C4)C(=O)NC5CC5 [XMD13-2] + Cc1nc(NC(=O)N2CCC[C@H]2C(N)=O)sc1-c1ccnc(C(C)(C)C(F)(F)F)c1 [Alpelisib] (partner 2 µM)
Procedure, shortened: (§1)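 Each reported value is a median over duplicate plates. It expresses relative viability: treated-well nuclei count divided by vehicle-well nuclei count. Lung cancer cell lines in 1536-well plates were dosed by pin tool a day after seeding, alone with one drug or with a fixed anchor-drug dose plus five library-drug doses (not always all listed) in √10 steps, and nuclei were counted after 5 days.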

Dasatinib + OSI-027 = compound: Cc1nc(Nc2ncc(C(=O)Nc3c(C)cccc3Cl)s2)cc(N2CCN(CCO)CC2)n1 [Dasatinib] + COc1cccc2cc(-c3nc([C@H]4CC[C@H](C(=O)O)CC4)n4ncnc(N)c34)[nH]c12 [OSI-027] (partner 0.5 µM)
Procedure, shortened: as §1

ALW-II-49-7 + Decitabine = compound: Cc1ccc(C(=O)Nc2cccc(C(F)(F)F)c2)cc1Nc1cncc(C(N)=O)c1 [ALW-II-49-7] + Nc1ncn([C@H]2C[C@H](O)[C@@H](CO)O2)c(=O)n1 [Decitabine] (partner 2 µM)
Procedure, shortened: as §1

XMD13-2 + OSI-027 = compound: C1CC1C(=O)NC2=NNC3=C2C=CC(=C3)C4=CC(=CC=C4)C(=O)NC5CC5 [XMD13-2] + COc1cccc2cc(-c3nc([C@H]4CC[C@H](C(=O)O)CC4)n4ncnc(N)c34)[nH]c12 [OSI-027] (partner 0.5 µM)
Procedure, shortened: as §1

Row | Cell Line | relative viability (XMD13-2 + Alpelisib; first compound 0.05 µM) | relative viability (XMD13-2 + Alpelisib; first compound 0.1581 µM) | relative viability (XMD13-2 + Alpelisib; first compound 0.5 µM) | relative viability (XMD13-2 + Alpelisib; first compound 1.581 µM) | relative viability (XMD13-2 + Alpelisib; first compound 5 µM) | relative viability (Dasatinib + OSI-027; first compound 0.005 µM) | relative viability (Dasatinib + OSI-027; first compound 0.01581 µM) | relative viability (Dasatinib + OSI-027; first compound 0.05 µM) | relative viability (Dasatinib + OSI-027; first compound 0.1581 µM) | relative viability (Dasatinib + OSI-027; first compound 0.5 µM) | relative viability (ALW-II-49-7 + Decitabine; first compound 0.08 µM) | relative viability (ALW-II-49-7 + Decitabine; first compound 0.253 µM) | relative viability (ALW-II-49-7 + Decitabine; first compound 0.8 µM) | relative viability (ALW-II-49-7 + Decitabine; first compound 2.53 µM) | relative viability (ALW-II-49-7 + Decitabine; first compound 8 µM) | relative viability (XMD13-2 + OSI-027; first compound 0.05 µM) | relative viability (XMD13-2 + OSI-027; first compound 0.1581 µM) | relative viability (XMD13-2 + OSI-027; first compound 0.5 µM) | relative viability (XMD13-2 + OSI-027; first compound 1.581 µM) | relative viability (XMD13-2 + OSI-027; first compound 5 µM)
1 | COR-L 105 | 1.06 | 1.36 | 0.984 | 0.964 | 0.945 | 0.555 | 0.467 | 0.418 | 0.262 | 0.222 | 0.722 | 0.71 | 0.673 | 0.58 | 0.616 | 0.83 | 0.658 | 0.668 | 0.66 | 0.707
2 | LCLC-97TM1 | 0.214 | 0.262 | 0.225 | 0.206 | 0.146 | 0.557 | 0.598 | 0.55 | 0.606 | 0.38 | 0.256 | 0.201 | 0.252 | 0.236 | 0.207 | 0.612 | 0.404 | 0.603 | 0.433 | 0.445
3 | NCI-H520 | 0.921 | 0.954 | 0.967 | 0.861 | 0.49 | 0.24 | 0.144 | 0.158 | 0.151 | 0.133 | 0.559 | 0.472 | 0.497 | 0.531 | 0.561 | 0.306 | 0.278 | 0.232 | 0.294 | 0.225
4 | NCI-H1993 | 0.666 | 0.663 | 0.694 | 0.763 | 0.642 | 0.512 | 0.524 | 0.491 | 0.532 | 0.554 | 0.591 | 0.567 | 0.603 | 0.576 | 0.587 | 0.448 | 0.5 | 0.511 | 0.558 | 0.432
5 | NCI-H1437 | 0.935 | 1.06 | 0.955 | 0.796 | 1.05 | 1.01 | 0.863 | 0.837 | 0.798 | 0.365 | 0.551 | 0.553 | 0.594 | 0.624 | 0.644 | 0.958 | 0.929 | 0.885 | 0.873 | 0.985
6 | LC-2-ad | 0.983 | 0.887 | 0.939 | 0.938 | 0.79 | 0.932 | 0.867 | 0.526 | 0.34 | 0.345 | 0.84 | 0.845 | 0.861 | 0.8 | 0.863 | 0.86 | 0.78 | 0.972 | 0.723 | 0.67
7 | HARA | 0.923 | 0.795 | 0.943 | 0.808 | 0.988 | 0.339 | 0.4 | 0.375 | 0.156 | 0.0755 | 0.689 | 0.47 | 0.497 | 0.52 | 0.663 | 0.661 | 0.438 | 0.43 | 0.446 | 0.636
8 | NCI-H650 | 1.21 | 1.2 | 1.43 | 1.18 | 1.15 | 0.591 | 0.524 | 0.493 | 0.303 | 0.265 | 0.333 | 0.334 | 0.314 | 0.306 | 0.321 | 0.522 | 0.512 | 0.599 | 0.474 | 0.522
9 | NCI-H1975 | 0.768 | 0.642 | 0.656 | 0.607 | 0.648 | 0.608 | 0.589 | 0.556 | 0.32 | 0.201 | 0.43 | 0.375 | 0.319 | 0.375 | 0.388 | 0.829 | 0.776 | 0.824 | 0.786 | 0.774
10 | NCI-H2085 | 0.965 | 0.946 | 1.04 | 0.928 | 0.98 | 0.554 | 0.626 | 0.34 | 0.251 | 0.164 | 0.515 | 0.537 | 0.48 | 0.523 | 0.55 | 0.74 | 0.749 | 0.757 | 0.654 | 0.916
11 | NCI-H3122 | 0.784 | 0.678 | 0.782 | 0.945 | 0.819 | 0.994 | 1.01 | 1.05 | 0.921 | 0.82 | 0.42 | 0.392 | 0.585 | 0.469 | 0.42 | 1.02 | 0.924 | 1.02 | 0.917 | 0.7
12 | NCI-H522 |  |  |  |  |  | 0.72 | 0.69 | 0.643 | 0.596 | 0.632 | 0.67 | 0.669 | 0.697 | 0.732 | 0.692 | 0.71 | 0.692 | 0.742 | 0.701 | 0.658
13 | NCI-H1563 | 1.02 | 1 | 0.941 | 0.894 | 0.985 | 0.702 | 0.691 | 0.626 | 0.618 | 0.541 |  |  |  |  |  | 0.811 | 0.731 | 0.74 | 0.788 | 0.751
14 | NCI-H1703 | 0.356 | 0.405 | 0.292 | 0.279 | 0.406 |  |  |  |  |  |  |  |  |  |  |  |  |  |  | 
15 | NCI-H1648 |  |  |  |  |  | 0.264 | 0.274 | 0.306 | 0.268 | 0.24 | 0.545 | 0.48 | 0.531 | 0.454 | 0.509 | 0.251 | 0.266 | 0.241 | 0.291 | 0.259
16 | EBC-1 | 0.999 | 0.801 | 0.907 | 0.738 | 0.483 |  |  |  |  |  |  |  |  |  |  |  |  |  |  | 
17 | NCI-H1650 |  |  |  |  |  | 0.571 | 0.355 | 0.318 | 0.219 | 0.171 | 0.447 | 0.399 | 0.432 | 0.462 | 0.493 | 0.651 | 0.609 | 0.747 | 0.555 | 0.697
18 | NCI-H1299 | 1.08 | 1.08 | 1.09 | 1.08 | 1.09 |  |  |  |  |  |  |  |  |  |  |  |  |  |  | 
19 | A549 | 1.05 | 0.709 | 0.812 | 0.714 | 0.952 |  |  |  |  |  | 0.207 | 0.211 | 0.246 | 0.335 | 0.254 |  |  |  |  | 
20 | IA-LM | 0.86 | 0.962 | 0.766 | 0.767 | 0.901 |  |  |  |  |  |  |  |  |  |  |  |  |  |  | 
